This note sets out measurements from US20250136606A1, “MODULATORS OF TRPML, THEIR COMPOSITIONS AND METHODS OF USE” (Caraway Therapeutics, Inc., priority 2021, published 2025).

What all share (format): cell-based
What all share (conditions): fluorescent calcium assay

For one test, the target named is T1, TRPML3 (Homo sapiens, UniProt Q8TDD5).
T1 construct: expressed in transfected cells
T1 sequence (Q8TDD5 1-553): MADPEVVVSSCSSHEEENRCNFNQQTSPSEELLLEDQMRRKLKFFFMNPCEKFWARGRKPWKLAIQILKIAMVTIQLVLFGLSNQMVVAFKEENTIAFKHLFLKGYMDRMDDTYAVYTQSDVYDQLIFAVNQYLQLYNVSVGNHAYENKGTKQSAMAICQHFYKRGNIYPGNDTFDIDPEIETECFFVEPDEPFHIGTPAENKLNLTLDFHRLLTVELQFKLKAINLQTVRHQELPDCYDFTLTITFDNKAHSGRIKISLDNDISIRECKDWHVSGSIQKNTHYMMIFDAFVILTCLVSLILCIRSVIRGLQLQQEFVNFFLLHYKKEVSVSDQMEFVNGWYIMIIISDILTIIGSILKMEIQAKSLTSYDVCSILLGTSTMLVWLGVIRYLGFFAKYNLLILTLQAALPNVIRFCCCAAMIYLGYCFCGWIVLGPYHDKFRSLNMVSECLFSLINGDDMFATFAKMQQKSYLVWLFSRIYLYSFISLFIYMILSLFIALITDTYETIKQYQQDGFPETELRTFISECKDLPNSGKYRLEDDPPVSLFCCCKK
Nature of the test: Fluorescent TRPML3 assay (performed as for TRPML1, substituting the TRPML3 subtype). The procedure, abridged: (§1)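 Agonist activity is scored as percent of plate controls from Fluo4 fluorescence after dye-loaded, doxycycline-induced HEK-293 Trex cells meet compound in high-calcium (10 mM) Ringer's. Compounds run in half-log dilutions from 20 micromolar final, in triplicate.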

For a further test, the target named is T2, TRPML2 (Homo sapiens, UniProt Q8IZK6).
T2 construct: expressed in transfected cells
T2 sequence (Q8IZK6 1-566): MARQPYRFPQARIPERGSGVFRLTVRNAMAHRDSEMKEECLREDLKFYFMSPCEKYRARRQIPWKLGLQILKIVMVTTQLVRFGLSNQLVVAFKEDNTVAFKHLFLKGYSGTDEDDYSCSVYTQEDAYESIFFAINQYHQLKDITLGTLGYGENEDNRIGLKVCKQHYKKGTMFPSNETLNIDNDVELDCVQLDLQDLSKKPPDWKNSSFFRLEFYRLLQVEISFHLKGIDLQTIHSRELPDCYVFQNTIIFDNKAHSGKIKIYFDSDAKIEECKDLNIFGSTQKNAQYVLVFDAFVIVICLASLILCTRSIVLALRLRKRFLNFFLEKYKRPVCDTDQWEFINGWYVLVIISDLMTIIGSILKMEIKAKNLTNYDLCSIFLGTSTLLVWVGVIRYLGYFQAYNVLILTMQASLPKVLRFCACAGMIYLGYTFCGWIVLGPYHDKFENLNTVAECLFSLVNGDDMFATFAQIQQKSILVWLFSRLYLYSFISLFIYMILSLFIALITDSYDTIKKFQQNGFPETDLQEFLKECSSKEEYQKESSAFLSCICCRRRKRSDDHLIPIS
Nature of the test: Fluorescent TRPML2 assay (performed as for TRPML1, substituting the TRPML2 subtype). The essentials: as §1

Another test deals with TRPML1 (Homo sapiens, UniProt Q9GZU1). In words: Fluorescent TRPML1 assay (Fluo4-AM calcium fluorescence in doxycycline-induced HEK-293 Trex cells). The essentials:
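First, expression of surface-targeted mutant human TRPML1 is induced in HEK-293 Trex cells with 0.5 ug/mL doxycycline the day before. Next, cells take up 1 micromolar Fluo4-AM in Ringer's with 0.1% Pluronic. Finally, they are added to compounds (6 nanomolar–20 micromolar final) in 10 mM calcium Ringer's and fluorescence is read.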

TRPML1, sequence (Q9GZU1 whole entry L15A/L16A/L577A/L578A, form open): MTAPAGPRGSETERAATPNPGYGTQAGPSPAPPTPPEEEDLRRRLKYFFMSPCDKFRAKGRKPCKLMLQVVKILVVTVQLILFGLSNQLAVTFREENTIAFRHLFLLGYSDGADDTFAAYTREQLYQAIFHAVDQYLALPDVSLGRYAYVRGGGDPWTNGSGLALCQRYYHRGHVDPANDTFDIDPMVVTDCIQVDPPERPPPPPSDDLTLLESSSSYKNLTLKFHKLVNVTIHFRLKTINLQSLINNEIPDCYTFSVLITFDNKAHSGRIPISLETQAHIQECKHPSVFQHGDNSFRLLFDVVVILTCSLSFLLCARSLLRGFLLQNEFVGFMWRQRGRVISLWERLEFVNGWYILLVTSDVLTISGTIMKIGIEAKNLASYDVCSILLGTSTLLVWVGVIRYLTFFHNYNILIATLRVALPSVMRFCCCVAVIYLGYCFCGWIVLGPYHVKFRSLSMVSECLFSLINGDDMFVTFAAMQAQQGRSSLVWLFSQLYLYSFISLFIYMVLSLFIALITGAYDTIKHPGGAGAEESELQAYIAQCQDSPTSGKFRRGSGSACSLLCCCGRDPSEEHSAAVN

Broadly, the EC50 is the midpoint of the concentration-response curve. As for `C[C@H]1CN(C(=O)OC(C)(C)C)CCN1c1ncnc2c1c(N1CCN(C)CC1)cn2-c1cc(C#N)ccn1` [Compound 381, tert-butyl (S)-4-(7-(4-cyanopyridin-2-yl)-5-(4-methylpiperazin-1-yl)-7H-pyrrolo[2,3-d]pyrimidin-4-yl)-3-methylpiperazine-1-carboxylate], the EC50 on TRPML3, on TRPML2 and on TRPML1 was over 2000 nM throughout.
Take `C[C@@H]1CN(c2ncnc3c2c(C2CC2)cn3-c2cc(C#N)ccn2)CCN1C(=O)OC(C)(C)C` [Compound 384, tert-butyl (R)-4-(7-(4-cyanopyridin-2-yl)-5-cyclopropyl-7H-pyrrolo[2,3-d]pyrimidin-4-yl)-2-methylpiperazine-1-carboxylate]: the figures for the concentration giving a half-maximal response (EC50) at TRPML3, at TRPML2 and at TRPML1 were under 100 nM, 100 to 500 nM and under 100 nM, respectively.
With `C[C@H]1CN(C(=O)OC(C)(C)C)CCN1c1ncnc2c1c(C1CC1)cn2-c1ccc(F)c(OC(F)(F)F)c1` [Compound 387, tert-butyl (S)-4-(5-cyclopropyl-7-(4-fluoro-3-(trifluoromethoxy)phenyl)-7H-pyrrolo[2,3-d]pyrimidin-4-yl)-3-methylpiperazine-1-carboxylate], the results for the EC50 on TRPML3, at TRPML2 and on TRPML1 were under 100 nM, 100 to 500 nM and 500 to 2000 nM, respectively.
The corresponding values for `C[C@@H]1CN(c2ncnc3c2c(N2CCC2)cn3-c2cc(C#N)ccn2)CCN1C(=O)OC(C)(C)C` [Compound 388, tert-butyl (R)-4-(5-(azetidin-1-yl)-7-(4-cyanopyridin-2-yl)-7H-pyrrolo[2,3-d]pyrimidin-4-yl)-2-methylpiperazine-1-carboxylate] are under 100 nM, under 100 nM and under 100 nM.
Turning to `C[C@@H]1CN(C(=O)OC(C)(C)C)CCN1c1ncnc2c1c(-c1ccccc1F)cn2-c1cc(C#N)ccn1` [Compound 389, tert-butyl (R)-4-(7-(4-cyanopyridin-2-yl)-5-(2-fluorophenyl)-7H-pyrrolo[2,3-d]pyrimidin-4-yl)-3-methylpiperazine-1-carboxylate], the results for the EC50 on TRPML3, on TRPML2 and on TRPML1 were under 100 nM, 100 to 500 nM and 500 to 2000 nM, respectively.
On to `C[C@@H]1CN(c2ncnc3c2c(-c2ccccc2F)cn3-c2cc(C#N)ccn2)[C@@H](C)CN1C(=O)OC(C)(C)C` [Compound 390], for which the EC50 at TRPML3, on TRPML2 and at TRPML1 was under 100 nM in each case.
Consider `CC(C)(C)OC(=O)N1CCN(c2ncnc3c2c(-c2ccccc2F)cn3-c2cc(C#N)ccn2)CC1(C)C` [Compound 391], for which the EC50 at TRPML3 is under 100 nM; at TRPML2 it was 100 to 500 nM; on TRPML1, under 100 nM.
Regarding `C[C@H]1CN(C(=O)OC(C)(C)C)CCN1c1ncnc2c1c(C1CC1)cn2C1CCC1` [Compound 398, tert-butyl (S)-4-(7-cyclobutyl-5-cyclopropyl-7H-pyrrolo[2,3-d]pyrimidin-4-yl)-3-methylpiperazine-1-carboxylate], the EC50 was 100 to 500 nM on TRPML3, 100 to 500 nM on TRPML2 and under 100 nM on TRPML1.
Turning to `C[C@H]1CN(C(=O)OC(C)(C)C)CCN1c1ncnc2c1c(N1CCCC1)cn2-c1cc(Cl)cc(C#N)c1` [Compound 399, tert-butyl (S)-4-(7-(3-chloro-5-cyanophenyl)-5-(pyrrolidin-1-yl)-7H-pyrrolo[2,3-d]pyrimidin-4-yl)-3-methylpiperazine-1-carboxylate], the EC50 at TRPML3 is under 100 nM; at TRPML2, 500 to 2000 nM; on TRPML1 it was 100 to 500 nM.
The corresponding values for `C[C@H]1CN(C(=O)OC(C)(C)C)CCN1c1ncnc2c1c(CN1CCCC1)cn2-c1cccc(C#N)c1` [Compound 400, tert-butyl (S)-4-(7-(3-cyanophenyl)-5-(pyrrolidin-1-ylmethyl)-7H-pyrrolo[2,3-d]pyrimidin-4-yl)-3-methylpiperazine-1-carboxylate] are 500 to 2000 nM, over 2000 nM and 500 to 2000 nM.
The like results for `C[C@H]1CN(C(=O)OC(C)(C)C)CCN1c1ncnc2c1c(N1CCCC1)cn2C1CCCC(F)(F)C1` (stereo partly drawn) [Compound 401, tert-butyl (3S)-4-(7-(3,3-difluorocyclohexyl)-5-(pyrrolidin-1-yl)-7H-pyrrolo[2,3-d]pyrimidin-4-yl)-3-methylpiperazine-1-carboxylate] were, in that order, under 100 nM, over 2000 nM and 100 to 500 nM.
In the case of `C[C@H]1CN(C(=O)OC(C)(C)C)CCN1c1ncnc2c1c(C1(C)CC1)cn2-c1cccc(C#N)c1` [Compound 402, tert-butyl (S)-4-(7-(3-cyanophenyl)-5-(1-methylcyclopropyl)-7H-pyrrolo[2,3-d]pyrimidin-4-yl)-3-methylpiperazine-1-carboxylate], the EC50 is under 100 nM at TRPML3, 500 to 2000 nM on TRPML2 and under 100 nM at TRPML1.
As to `Cc1cc(C#N)cc(-n2cc(C3CC3)c3c(N4CCN(C(=O)OC(C)(C)C)C[C@@H]4C)ncnc32)n1` [Compound 403, tert-butyl (S)-4-(7-(4-cyano-6-methylpyridin-2-yl)-5-cyclopropyl-7H-pyrrolo[2,3-d]pyrimidin-4-yl)-3-methylpiperazine-1-carboxylate], the results for the EC50 at TRPML3, on TRPML2 and at TRPML1 were under 100 nM, 500 to 2000 nM and 100 to 500 nM, respectively.
The corresponding values for `Cc1cc(C#N)cc(-n2cc(-c3ccccc3F)c3c(N4CCN(C(=O)OC(C)(C)C)C[C@@H]4C)ncnc32)n1` [Compound 404, tert-butyl (S)-4-(7-(4-cyano-6-methylpyridin-2-yl)-5-(2-fluorophenyl)-7H-pyrrolo[2,3-d]pyrimidin-4-yl)-3-methylpiperazine-1-carboxylate] are under 100 nM, under 100 nM and under 100 nM.
The corresponding values for `C[C@H]1CN(C(=O)OC(C)(C)C)CCN1c1ncnc2c1c(N1CCC(C)(C)C1)cn2-c1cc(C#N)ccn1` [Compound 405, tert-butyl (S)-4-(7-(4-cyanopyridin-2-yl)-5-(3,3-dimethylpyrrolidin-1-yl)-7H-pyrrolo[2,3-d]pyrimidin-4-yl)-3-methylpiperazine-1-carboxylate] are under 100 nM, under 100 nM and under 100 nM.
Regarding `C[C@H]1CN(C(=O)OC(C)(C)C)CCN1c1ncnc2c1c(N1CCCC1)cn2[C@@H]1C[C@@H]2CC[C@H]1C2` [Compound 406, tert-butyl-(S)-4-(7-((1S,2R,4R)-bicyclo[2.2.1]heptan-2-yl)-5-(pyrrolidin-1-yl)-7H-pyrrolo[2,3-d]pyrimidin-4-yl)-3-methylpiperazine-1-carboxylate], the EC50 on TRPML3 fell in the range of 500 to 2000 nM; on TRPML2, 500 to 2000 nM; on TRPML1 it was 100 to 500 nM.
As for `C[C@H]1CN(C(=O)OC(C)(C)C)CCN1c1ncnc2c1c(N1CCC1)cn2-c1cc(C#N)ccn1` [Compound 407, tert-butyl (S)-4-(5-(azetidin-1-yl)-7-(4-cyanopyridin-2-yl)-7H-pyrrolo[2,3-d]pyrimidin-4-yl)-3-methylpiperazine-1-carboxylate], the EC50 on TRPML3, on TRPML2 and on TRPML1 was under 100 nM throughout.
Consider `C[C@H]1CN(C(=O)OC(C)(C)C)CCN1c1ncnc2c1c(C1CC1)cn2C1CCCN(C#N)C1` (stereo partly drawn) [Compound 410, tert-butyl (3S)-4-(7-(1-cyanopiperidin-3-yl)-5-cyclopropyl-7H-pyrrolo[2,3-d]pyrimidin-4-yl)-3-methylpiperazine-1-carboxylate], for which the values for the EC50 at TRPML3, on TRPML2 and at TRPML1 were 500 to 2000 nM, over 2000 nM and 500 to 2000 nM, respectively.
As for `C[C@H]1CN(C(=O)OC(C)(C)C)CCN1c1ncnc2c1c(C1(C)CC1)cn2-c1cc(C#N)ccn1` [Compound 411, tert-butyl (S)-4-(7-(4-cyanopyridin-2-yl)-5-(1-methylcyclopropyl)-7H-pyrrolo[2,3-d]pyrimidin-4-yl)-3-methylpiperazine-1-carboxylate], the EC50 on TRPML3, on TRPML2 and on TRPML1 was under 100 nM each time.
